The source of these data is patent publication US6242199A, “Assays for growth hormone secretagogue receptors” (Merck & Co., Inc., priority 1998, dated 2001).

Assay [1] has as its target T1, growth hormone secretagogue receptor (GHSR), rat pituitary membranes (Rattus norvegicus, UniProt O08725).
T1 construct: from the Wistar male rats (150-200 g); from tissue; host or cells: pituitary glands of male Wistar rats (150-200 g), crude membranes
As to the kind of experiment: [35S]-Compound A radioreceptor binding, rat pituitary membranes. As to the method: [^35 S]-Compound A was prepared from an appropriate precursor, N-[1(R)-[(1,2-dihydrospiro[3H-indole-3,4'-piperidin]-1'-yl)-carbonyl]-2-(phenyl-methyloxy)ethyl]-2-amino-t-butoxycarbonyl-2-methylpropanamide, using methane [^35 S]sulfonyl chloride as described in Dean DC, et al., 1995, In: Allen J, Voges R (eds) Synthesis and Applications of Isotopically Labelled Compounds, John Wiley & Sons, New York, pp. 795-801, Purification by semi-preparative HPLC (Zorbax SB-phenyl column, 68% MeOH/water, 0.1% TFA, 5 ml/min) was followed by N-t-BOC cleavage using 15% trifluroacetic acid in dichloromethane (25° C., 3 hr) to give [methylsulfonyl-^35 S]Compound A in near quantitative yield. HPLC purification (Hamilton PRP-1 4.6×250 mm column, linear gradient of 50-75% methanol-water with 1 mM HCl over 30 min, 1.3 ml/min) provided the ligand in >99% radiochemical purity. The structure was established by HPLC coelution with unlabeled Compound A and by mass spectral analysis. The latter method also indicated a specific activity of ~1000 Ci/mmol.
Frozen anterior pituitary glands from male swine (50-80 Kg) or from the Wistar male rats (150-200 g) were homogenized in a tissue homogenizer in ice-cold buffer (50 mM Tris-HCl buffer, pH 7.4, 5 mM MgCl2, 2.5 mM EDTA, 0.1% bovine serum albumin and 30 μg/ml bacitracin). The homogenates were centrifuged for 5 min at 1,400×g and the resulting supernatants were then centrifuged at 34,000×g for 20 min. The pellets were resuspended in same buffer to a 1,500 μg protein/ml and stored at -80° C. Protein was determined by a Bio-Rad method (Bio-Rad Laboratories, Richmond, Calif.).
The standard binding solution contained: […] of 25 mM Tris-HCl buffer, pH 7.4, 10 mM MgCl2, 2.5 mM EDTA, and 100 pM [^35 S]-Compound A. Pituitary membranes (100 μl, 150 μg protein) were added to initiate the binding reaction. […] The filters were washed three times with 3-ml of ice-cold buffer (50 mM Tris-HCl, pH 7.4, 10 mM MgCl2, 2.5 mM EDTA and 0.015% Triton X-100) and the radioactivity on the filters were counted in Aquasol 2. […]

In another assay the test system is swine Type I GHSR. Put plainly: Aequorin bioluminescence assay in Xenopus oocytes, swine Type I GHSR. The assay is classed as cell-based. To be noted: swine Type I cRNA in oocytes; tested from 1 μM down. As to the method: Xenopus laevis oocytes were isolated and injected using standard methods previously described by Arena, et. al. 1991, Mol. Pharmacol. 40, 368-374, which is hereby incorporated by reference. Adult female Xenopus Laevis frogs (purchased from Xenopus One, Ann Arbor, Mich.) were anesthetized with 0.17% tricaine methanesulfonate and the ovaries were surgically removed and placed in a 60 mm culture dish (Falcon) containing OR-2 medium without calcium (82.5 mM NaCl, 2 mM KCl, 2.5 mM sodium pyruvate, 1 mM MgCl2, 100 μ/ml penicillin, 1 mg/ml streptomycin, 5 mM HEPES, pH=7.5; ND-96 from Specialty Media, NJ). Ovarian lobes were broken open, rinsed several times, and oocytes were released from their sacs by collagenase A digestion (Boehringer-Mannheim; 0.2% for 2-3 hours at 18° C.) in calcium-free OR-2. […]
The ABA requires injection of library pool cRNA (25 ng/egg for pool sizes of 500 to 10,000) with aequorin cRNA (2 ng/egg) supplemented with the G-protein alpha subunit Gα11 (2 ng/egg). […] Polymerase chain reaction (PCR) was utilized to generate a DNA fragment corresponding to the open reading frame (ORF) of the aequorin cDNA with an optimized Kosak translational initiation sequence (Inouye, S. et. al., 1985, Proc. Natl. Acad. Sci. USA 82:3154-3158). […]

T1 sequence (O08725 whole entry): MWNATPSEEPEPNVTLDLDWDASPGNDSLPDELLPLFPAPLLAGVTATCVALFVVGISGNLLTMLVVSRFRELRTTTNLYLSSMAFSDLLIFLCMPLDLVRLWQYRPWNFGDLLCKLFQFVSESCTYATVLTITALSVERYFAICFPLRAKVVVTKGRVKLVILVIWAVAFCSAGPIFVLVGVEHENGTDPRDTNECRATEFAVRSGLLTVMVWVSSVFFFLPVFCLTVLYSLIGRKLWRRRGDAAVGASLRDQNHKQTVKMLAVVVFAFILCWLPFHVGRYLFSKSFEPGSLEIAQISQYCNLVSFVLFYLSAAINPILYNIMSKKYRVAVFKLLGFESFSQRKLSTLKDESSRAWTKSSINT

A word on the Kd: it is the concentration at which binding is half-saturated. A lower Kd goes with a tighter complex. For the compound `CC(C)(N)C(=O)N[C@H](COCc1ccccc1)C(=O)N1CCC2(CC1)CN(S(C)(=O)=O)c1ccccc12` [Compound A, (N-[1(R)-[1,2-dihydro-1-methanesulfonlylspiro[3H-indole-3,4'-piperidin]-1'-yl)carbonyl]-2-(phenylmethyloxy)-ethyl]-2-amino-2-methyl-propanamide], in assay [1] (rat membranes, nonspecific in 500 nM unlabeled Compound A), the “specific binding of total binding” value is given as 45-60%. Besides, in assay [1] (rat pituitary membranes, n=3), the Bmax came out at 2.3±1.1 fmol/mg protein and binding was characterised by a dissociation constant (Kd) of 0.18 ± 0.009 nM. For the same compound, the “lowest Compound A concentration giving a response” value in the assay with swine Type I GHSR was determined as 0.1 nM.
